According to ChEMBL document CHEMBL1201862, “PubChem BioAssay data set” (2004):
Activity calls are given as the source filed them.

Key:
[1] = target: Fructose-bisphosphate aldolase (Mycobacterium tuberculosis, UniProt P9WQA3); assay: Fluorescence-based biochemical high throughput dose response assay for inhibitors of the fructose-bisphosphate aldolase (FBA) of M. tuberculosis.; assay type: functional
[2] = target: Dual specificity tyrosine-phosphorylation-regulated kinase 1A (Rattus norvegicus, UniProt Q63470); assay type: biochemical, Homo sapiens
[3] = StAR promoter reporter inhibition counter-screen, dose response, counter-screen for LRH-1 inverse agonist project, cell-based, luminescence, luciferase reporter (AID 651969); assay type: functional
[4] = target: T1, Microphthalmia-associated transcription factor (Homo sapiens, UniProt O75030); assay: TRPM1 promoter luciferase signal decrease, dose response, MITF inhibitor project, cell-based, SK-MEL-5, cherry-picked, set 3 (AID 493073); assay type: functional
T1 sequence (O75030 whole entry): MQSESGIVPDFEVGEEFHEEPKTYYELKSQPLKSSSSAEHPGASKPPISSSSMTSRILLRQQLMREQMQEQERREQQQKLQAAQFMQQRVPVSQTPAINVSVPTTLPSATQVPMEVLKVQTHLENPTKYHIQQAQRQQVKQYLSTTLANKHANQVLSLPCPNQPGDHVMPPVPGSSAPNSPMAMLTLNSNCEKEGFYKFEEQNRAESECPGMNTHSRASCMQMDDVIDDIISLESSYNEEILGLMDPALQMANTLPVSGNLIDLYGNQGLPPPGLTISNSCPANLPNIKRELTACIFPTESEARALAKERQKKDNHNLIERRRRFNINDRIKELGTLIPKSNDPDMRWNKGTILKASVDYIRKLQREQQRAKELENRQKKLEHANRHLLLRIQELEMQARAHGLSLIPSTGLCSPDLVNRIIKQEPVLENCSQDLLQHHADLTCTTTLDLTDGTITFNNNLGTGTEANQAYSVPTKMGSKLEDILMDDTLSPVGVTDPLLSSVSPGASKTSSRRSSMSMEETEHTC

[5] = inhibitors of intracellular T. cruzi replication, confirmation, NIH3T3 host cells, beta-gal luminescence (AID 2044); assay type: functional, cell-based;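 also: intracellular parasites grown in NIH/3T3 mouse fibroblasts as host cells; luminescent beta-galactosidase reporter signal from transgenic T. cruzi replicating inside host cells; inhibitors lower the luminescence signal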
[6] = target: Steroidogenic factor 1 (Homo sapiens, UniProt Q13285); assay: Counterscreen for inverse agonists of the liver receptor homolog-1 (LRH-1; NR5A2): Luminescence-based cell-based high throughput dose response assay to identify inverse agonists of the Steroidogenic Factor 1 Nuclear Receptor (SF1; NR5A1).; assay type: functional
[7] = cytotoxicity toward NIH3T3 fibroblasts, dose response, counter-screen, cell-based, ATP luminescence, mouse fibroblasts (AID 2010); assay type: functional;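 also: cells exposed to compound for about 90 hours before reading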
[8] = target: Nuclear receptor subfamily 5 group A member 2 (Homo sapiens, UniProt O00482); assay type: functional, cell-based;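 also: HEK293T cells transfected with LRH-1 and a StAR promoter luciferase reporter; potency for inhibitors that lower LRH-1 driven reporter light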
[9] = target: T2, Beta-lactamase (Salmonella choleraesuis (strain SC-B67), UniProt Q5J463); assay: Epi-absorbance-based counterscreen for selective VIM-2 inhibitors: dose response biochemical high throughput screening assay to identify inhibitors of TEM-1 serine-beta-lactamase.
[10] = target: T3, Beta-lactamase (Pseudomonas aeruginosa, UniProt Q79MP6); assay: […] counterscreen for selective VIM-2 inhibitors: dose response biochemical high throughput screening assay to identify inhibitors of IMP-1 metallo-beta-lactamase.
[11] = target: T3, Beta-lactamase; assay: IMP-1 metallo-beta-lactamase inhibitors, dose response, selectivity assay for VIM-2 inhibitor project, biochemical, epi-absorbance (AID 1920)
[12] = target: T4, DNA repair protein RAD52 homolog (Homo sapiens, UniProt P43351); assay type: functional, biochemical
T4 sequence (P43351 whole entry): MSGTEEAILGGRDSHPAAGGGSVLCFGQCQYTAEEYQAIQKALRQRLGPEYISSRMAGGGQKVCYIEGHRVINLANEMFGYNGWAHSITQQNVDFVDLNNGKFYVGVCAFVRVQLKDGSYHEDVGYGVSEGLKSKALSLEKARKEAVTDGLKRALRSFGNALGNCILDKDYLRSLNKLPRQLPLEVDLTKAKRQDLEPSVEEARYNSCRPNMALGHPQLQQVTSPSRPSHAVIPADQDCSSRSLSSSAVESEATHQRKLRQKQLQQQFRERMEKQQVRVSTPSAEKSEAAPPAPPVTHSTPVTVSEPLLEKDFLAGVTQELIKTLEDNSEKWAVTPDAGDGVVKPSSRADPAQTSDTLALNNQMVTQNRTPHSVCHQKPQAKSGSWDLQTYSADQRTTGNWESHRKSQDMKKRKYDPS

[13] = Fluorescence-based cell-based high throughput dose response assay for inhibitors of the interaction of nucleotide-binding oligomerization domain containing 2 (NOD2) and the receptor-interacting serine-threonine kinase 2 (RIPK2).; assay type: functional; conditions: Homo sapiens
[14] = target: Beta Lactamase (Pseudomonas aeruginosa, UniProt Q932Y6); assay: beta-lactamase reporter inhibitor potency, dose response, artefact control for NOD2-RIPK2 interaction inhibitor project, BLA reporter cells, FRET fluorescence (AID 651552); assay type: functional, cell-based
[15] = target: Paired box protein Pax-8 (Homo sapiens, UniProt Q06710); assay: inhibitors of PAX8-driven TPO luciferase reporter, dose response, RMG-I cells, cherry-pick (AID 687027); assay type: functional, cell-based;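 also: luciferase reporter driven by Pax8 target thyroperoxidase promoter measured by SteadyGlo luminescence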
[16] = non-specific cell cytotoxicity, dose response, cytotoxicity control for PAX8 inhibitor project, plate reader, dry powder samples (AID 743021); assay type: functional, cell-based
[17] = target: T5, Probable nicotinate-nucleotide adenylyltransferase (Staphylococcus aureus (strain N315), UniProt P65502); assay type: functional, Staphylococcus aureus subsp. aureus N315; conditions: read-out: IC50_Mean;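 as to IC50 Mean: confirmatory dose-response retesting of NadD inhibitor hits first found in an ultra-high-throughput screen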
[18] = target: T5, Probable nicotinate-nucleotide adenylyltransferase; assay type: functional, Staphylococcus aureus subsp. aureus N315
[19] = miR-122 activators in hepatoma reporter cells, dose response, cell-based, Huh7 psiCHECK-miR122, Renilla luciferase, cherry-picked (AID 651956); assay type: functional;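 also: huh7 hepatoma cells stably carrying a psiCHECK-2 miR-122 sensor plasmid; renilla luciferase signal reporting endogenous miR-122 activity after 48 h compound exposure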
[20] = test system: Streptococcus; assay: Group A Streptococcus viability loss, dose response, counter-screen for streptokinase expression inhibitor project, luminescence, BacTiterGlo (AID 1915); assay type: functional, organism-based;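 also: potency for reduction of bacterial viability or growth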
[21] = test system: Streptococcus sp. 'group A'; assay: growth inhibition of control SK(-) GAS strain, dose response, counter-screen for streptokinase expression inhibitor project, luminescence, kanamycin, BacTiterGlo, confirmation (AID 1900); assay type: functional, organism-based
[22] = target: T6, Ubiquitin-conjugating enzyme E2 N (Homo sapiens, UniProt P61088); assay type: functional;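 also: Dose-response confirmation in a TR-FRET assay detecting UBC13-driven polyubiquitin chain formation, inhibition measured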
T6 sequence (P61088 whole entry): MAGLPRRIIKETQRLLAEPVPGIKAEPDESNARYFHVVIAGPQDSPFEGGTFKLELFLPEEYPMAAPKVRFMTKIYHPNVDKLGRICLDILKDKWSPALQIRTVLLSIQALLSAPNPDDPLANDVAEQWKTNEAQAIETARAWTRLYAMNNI

[23] = target: T7, Streptokinase A (Streptococcus pyogenes serotype M1, UniProt P10520); assay: S. pyogenes streptokinase expression inhibitors, potency, dose response, plasminogen activation absorbance, OD405 (AID 1914); assay type: functional, Streptococcus pyogenes M1 GAS;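 also: secreted streptokinase activity via plasminogen activation per viability signal from cell pellet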
T7 sequence (P10520 whole entry): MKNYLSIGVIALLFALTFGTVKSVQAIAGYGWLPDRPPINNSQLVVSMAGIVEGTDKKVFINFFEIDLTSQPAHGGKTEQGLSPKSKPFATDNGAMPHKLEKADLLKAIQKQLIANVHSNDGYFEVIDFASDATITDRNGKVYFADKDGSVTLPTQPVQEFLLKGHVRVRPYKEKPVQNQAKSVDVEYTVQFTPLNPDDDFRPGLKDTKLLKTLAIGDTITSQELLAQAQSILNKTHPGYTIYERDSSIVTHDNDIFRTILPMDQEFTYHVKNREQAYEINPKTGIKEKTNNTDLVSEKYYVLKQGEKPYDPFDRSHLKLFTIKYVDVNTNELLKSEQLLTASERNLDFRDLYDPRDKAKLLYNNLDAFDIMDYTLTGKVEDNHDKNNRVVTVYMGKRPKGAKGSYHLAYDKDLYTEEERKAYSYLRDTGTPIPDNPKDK

[24] = target: Galanin receptor type 3 (Homo sapiens, UniProt O60755); assay: Fluorescence-based cell-based primary high throughput dose response assay to identify antagonists of the Galanin Receptor 3 (GalR3).; assay type: functional
[25] = cells; assay type: functional, cell-based; conditions: HEK-CNG
[26] = target: T2, Beta-lactamase
[27] = target: T3, Beta-lactamase
[28] = THP-1 cell cytotoxicity, dose response, cytotoxicity control for non-replicating M. tuberculosis project (AID 489025); assay type: functional
[29] = AlphaScreen signal interference compounds, dose response, artefact control for ARNT-TACC3 interaction inhibitor project, biochemical, luminescence, cherry-pick (AID 651705); assay type: functional;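 also: AlphaScreen bead proximity signal that flags compounds interfering with the detection technology; potency reflects signal decrease which marks the compound as an assay artifact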
[30] = Vero E6 cell cytotoxicity, dose response, cytotoxicity control for non-replicating M. tuberculosis project, secondary assay (AID 492998); assay type: functional, VeroE6; conditions: Vero C1008
[31] = cells; assay type: functional
[32] = target: Nonstructural protein 1 (Influenza A virus, UniProt Q194T2); assay type: functional, Influenza A virus (A/California/07/2009(H1N1))
[33] = HepG2 cell cytotoxicity, dose response, cytotoxicity control for non-replicating M. tuberculosis project (AID 489018); assay type: functional; conditions: Mycobacterium tuberculosis
[34] = test system: H9c2; assay: cells; assay type: functional, cell-based; conditions: Rattus norvegicus, H9c2, Myocardium;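 also: confirmatory concentration-response retest of ultra-high-throughput screening hits for modulation of myocardial damage; cell death induced by hydrogen peroxide oxidative stress; compound pretreatment for 60 min then peroxide exposure for 2 h; potency is for protecting the cells against peroxide damage rather than for killing them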
[35] = target: FAD-linked sulfhydryl oxidase ALR (Homo sapiens, UniProt P55789); assay: inhibitors of human ALR sulfhydryl oxidase, dose response, biochemical, H2O2 detection, luminescence, cherry-pick (AID 493248)
[36] = target: Large T antigen (Simian virus 40, UniProt P03070); assay type: functional, Betapolyomavirus macacae;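 also: Confirmatory-stage PubChem screen for compounds that inhibit SV40 T antigen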
Sequence of Large T antigen (P03070 whole entry): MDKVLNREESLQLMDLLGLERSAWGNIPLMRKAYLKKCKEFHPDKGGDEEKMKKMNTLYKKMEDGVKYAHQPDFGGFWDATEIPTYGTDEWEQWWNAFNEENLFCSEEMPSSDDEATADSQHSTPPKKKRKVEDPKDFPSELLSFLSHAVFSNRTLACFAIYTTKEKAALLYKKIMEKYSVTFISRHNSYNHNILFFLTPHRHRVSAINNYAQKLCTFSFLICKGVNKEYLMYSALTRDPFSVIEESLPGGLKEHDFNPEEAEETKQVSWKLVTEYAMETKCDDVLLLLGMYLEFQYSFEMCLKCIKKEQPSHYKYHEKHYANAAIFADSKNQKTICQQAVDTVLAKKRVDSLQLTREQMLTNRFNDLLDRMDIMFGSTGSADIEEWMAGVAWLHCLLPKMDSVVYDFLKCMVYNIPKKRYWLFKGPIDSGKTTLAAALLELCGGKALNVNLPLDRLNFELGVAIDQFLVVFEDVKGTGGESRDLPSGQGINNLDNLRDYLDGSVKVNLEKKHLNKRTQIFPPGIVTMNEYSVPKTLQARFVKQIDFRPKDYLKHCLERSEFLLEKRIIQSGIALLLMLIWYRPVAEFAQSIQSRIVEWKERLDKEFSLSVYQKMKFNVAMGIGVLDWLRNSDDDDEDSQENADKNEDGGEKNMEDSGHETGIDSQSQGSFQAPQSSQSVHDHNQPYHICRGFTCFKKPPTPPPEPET

T2 sequence (Q5J463 whole entry): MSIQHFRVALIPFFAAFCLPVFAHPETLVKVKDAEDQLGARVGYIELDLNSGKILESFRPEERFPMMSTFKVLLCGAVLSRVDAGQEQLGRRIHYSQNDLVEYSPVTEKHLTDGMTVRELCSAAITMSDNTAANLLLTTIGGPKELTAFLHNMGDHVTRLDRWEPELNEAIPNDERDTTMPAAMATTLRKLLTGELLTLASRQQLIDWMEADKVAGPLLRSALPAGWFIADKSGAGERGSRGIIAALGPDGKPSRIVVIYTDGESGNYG
T3 sequence (Q79MP6 whole entry): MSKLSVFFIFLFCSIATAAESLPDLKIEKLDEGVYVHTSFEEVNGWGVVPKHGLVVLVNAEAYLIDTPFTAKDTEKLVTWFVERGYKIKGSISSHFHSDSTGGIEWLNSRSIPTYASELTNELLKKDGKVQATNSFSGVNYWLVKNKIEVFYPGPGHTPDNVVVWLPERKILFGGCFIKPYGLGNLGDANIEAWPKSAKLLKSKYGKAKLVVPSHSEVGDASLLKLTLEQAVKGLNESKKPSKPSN
Sequence of Fructose-bisphosphate aldolase (P9WQA3 whole entry): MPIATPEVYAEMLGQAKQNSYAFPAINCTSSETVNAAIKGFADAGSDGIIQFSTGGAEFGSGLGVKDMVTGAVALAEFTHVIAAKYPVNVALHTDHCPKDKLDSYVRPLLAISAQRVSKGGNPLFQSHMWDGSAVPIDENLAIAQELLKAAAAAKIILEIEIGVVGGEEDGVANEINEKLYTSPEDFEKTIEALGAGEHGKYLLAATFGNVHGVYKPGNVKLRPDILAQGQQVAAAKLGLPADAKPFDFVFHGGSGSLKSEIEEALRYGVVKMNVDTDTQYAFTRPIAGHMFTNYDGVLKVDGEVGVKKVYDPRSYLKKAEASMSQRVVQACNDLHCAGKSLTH
Sequence of Nonstructural protein 1 (Q194T2 whole entry): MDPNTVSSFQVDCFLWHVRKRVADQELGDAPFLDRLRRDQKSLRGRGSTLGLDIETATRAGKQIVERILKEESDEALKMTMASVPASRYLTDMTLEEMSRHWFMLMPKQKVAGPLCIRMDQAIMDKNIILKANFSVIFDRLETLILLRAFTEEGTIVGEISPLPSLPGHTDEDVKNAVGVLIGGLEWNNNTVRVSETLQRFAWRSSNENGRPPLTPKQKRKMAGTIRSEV
Sequence of Nuclear receptor subfamily 5 group A member 2 (O00482 whole entry): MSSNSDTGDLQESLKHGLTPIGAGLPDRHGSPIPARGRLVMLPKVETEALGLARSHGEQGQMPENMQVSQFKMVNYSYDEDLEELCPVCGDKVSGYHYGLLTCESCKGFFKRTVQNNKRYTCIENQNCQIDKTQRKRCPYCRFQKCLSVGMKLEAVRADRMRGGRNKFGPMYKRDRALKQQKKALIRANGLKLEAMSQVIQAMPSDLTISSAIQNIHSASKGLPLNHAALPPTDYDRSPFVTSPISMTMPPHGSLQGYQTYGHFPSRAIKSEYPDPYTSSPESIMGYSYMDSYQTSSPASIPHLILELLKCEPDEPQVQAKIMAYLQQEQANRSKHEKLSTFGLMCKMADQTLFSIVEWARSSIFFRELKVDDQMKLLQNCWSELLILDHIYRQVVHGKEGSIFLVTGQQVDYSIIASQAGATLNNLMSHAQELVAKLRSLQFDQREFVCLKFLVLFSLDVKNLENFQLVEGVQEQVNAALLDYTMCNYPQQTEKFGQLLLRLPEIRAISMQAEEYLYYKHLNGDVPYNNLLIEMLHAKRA
T5 sequence (P65502 whole entry): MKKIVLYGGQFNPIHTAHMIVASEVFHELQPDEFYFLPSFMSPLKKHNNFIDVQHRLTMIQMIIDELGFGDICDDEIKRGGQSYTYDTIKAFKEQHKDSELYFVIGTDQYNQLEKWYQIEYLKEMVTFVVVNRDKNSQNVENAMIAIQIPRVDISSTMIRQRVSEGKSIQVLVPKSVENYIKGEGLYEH
Sequence of Beta Lactamase (Q932Y6 whole entry): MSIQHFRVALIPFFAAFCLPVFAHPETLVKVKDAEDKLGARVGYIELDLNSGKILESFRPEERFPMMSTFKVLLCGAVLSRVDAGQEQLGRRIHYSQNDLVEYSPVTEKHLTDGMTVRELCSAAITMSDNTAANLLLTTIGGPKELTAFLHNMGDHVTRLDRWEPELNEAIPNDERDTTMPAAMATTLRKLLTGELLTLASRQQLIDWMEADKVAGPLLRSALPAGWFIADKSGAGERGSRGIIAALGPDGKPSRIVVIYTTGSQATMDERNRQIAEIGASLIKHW
Sequence of Steroidogenic factor 1 (Q13285 whole entry): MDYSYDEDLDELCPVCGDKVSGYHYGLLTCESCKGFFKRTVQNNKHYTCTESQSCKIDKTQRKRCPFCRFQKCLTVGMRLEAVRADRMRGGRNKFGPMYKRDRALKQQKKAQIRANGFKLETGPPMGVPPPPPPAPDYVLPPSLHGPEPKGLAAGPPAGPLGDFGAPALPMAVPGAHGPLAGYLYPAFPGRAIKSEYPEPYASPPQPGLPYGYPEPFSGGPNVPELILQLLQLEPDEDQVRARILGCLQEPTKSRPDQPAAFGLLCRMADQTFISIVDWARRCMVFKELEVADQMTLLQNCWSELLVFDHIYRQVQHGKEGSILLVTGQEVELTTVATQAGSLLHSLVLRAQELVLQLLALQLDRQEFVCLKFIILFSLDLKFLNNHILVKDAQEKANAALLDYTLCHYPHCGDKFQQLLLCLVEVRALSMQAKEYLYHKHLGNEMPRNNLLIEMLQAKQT
Sequence of Galanin receptor type 3 (O60755 whole entry): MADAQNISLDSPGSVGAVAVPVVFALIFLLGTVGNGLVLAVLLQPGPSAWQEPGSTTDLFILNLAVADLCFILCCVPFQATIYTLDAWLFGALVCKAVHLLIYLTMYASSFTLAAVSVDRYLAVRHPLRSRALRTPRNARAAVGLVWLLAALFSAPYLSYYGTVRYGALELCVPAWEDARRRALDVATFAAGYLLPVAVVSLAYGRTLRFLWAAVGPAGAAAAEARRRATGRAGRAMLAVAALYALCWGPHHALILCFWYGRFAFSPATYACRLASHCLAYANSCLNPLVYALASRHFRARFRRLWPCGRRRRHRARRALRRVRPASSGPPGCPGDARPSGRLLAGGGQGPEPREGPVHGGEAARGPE
Sequence of Paired box protein Pax-8 (Q06710 whole entry): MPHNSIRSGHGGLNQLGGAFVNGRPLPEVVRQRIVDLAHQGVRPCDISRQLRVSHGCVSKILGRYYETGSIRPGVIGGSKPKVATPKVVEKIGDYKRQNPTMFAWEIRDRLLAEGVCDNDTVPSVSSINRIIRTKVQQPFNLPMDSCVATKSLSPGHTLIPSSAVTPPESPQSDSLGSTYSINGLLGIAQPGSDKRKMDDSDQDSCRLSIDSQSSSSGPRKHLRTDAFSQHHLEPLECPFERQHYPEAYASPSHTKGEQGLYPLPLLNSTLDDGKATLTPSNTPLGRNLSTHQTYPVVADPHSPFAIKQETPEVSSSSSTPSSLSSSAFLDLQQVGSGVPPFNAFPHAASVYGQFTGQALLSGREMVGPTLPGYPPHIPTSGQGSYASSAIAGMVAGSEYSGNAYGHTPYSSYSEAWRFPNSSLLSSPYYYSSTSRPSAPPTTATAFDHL
Sequence of FAD-linked sulfhydryl oxidase ALR (P55789 whole entry): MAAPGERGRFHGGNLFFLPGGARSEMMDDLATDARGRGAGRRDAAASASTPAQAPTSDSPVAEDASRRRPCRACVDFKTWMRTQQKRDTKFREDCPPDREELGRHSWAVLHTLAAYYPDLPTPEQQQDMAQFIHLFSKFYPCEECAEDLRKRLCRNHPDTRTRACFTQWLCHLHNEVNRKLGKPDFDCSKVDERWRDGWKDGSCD

SMILES: CC1(C)C=Cc2cc3ccc(=O)oc3cc2O1 [XANTHYLETIN]
- IC50 [1]: > 1.11 µM (active)
- AC50 [2]: 8.65 µM (active)

SMILES: Cc1ccccc1OCC(=O)N/N=C/c1ccc([N+](=O)[O-])o1
- IC50 [3]: 29.9 µM (inactive)
- AC50 [4]: 8.22 µM (active)
- EC50 [5]: 0.151 µM (active)
- IC50 [6]: 6.24 µM (active)
- EC50 [7]: > 30 µM (not active)
- IC50 [8]: 10.6 µM (inactive)

SMILES: Sc1nnc(C2CC2)n1Cc1ccco1
- IC50 [9]: > 59.6 µM (inactive)
- IC50 [10]: > 59.6 µM (inactive)
- IC50 [11]: > 59.6 µM (inactive)

SMILES: CCSc1ccc(-c2cc(NC=O)c3ncc(-c4cccc(C(=O)NCCN(C)C)c4)n3c2)cc1
- AC50 [12]: 1.14 µM (active)
- IC50 [13]: 11.8 µM (inactive)
- IC50 [14]: 20 µM (inactive)
- AC50 [15]: 9.88 µM (active)
- AC50 [16]: 53.9 µM (active)

SMILES: CCC(=O)Nc1ccc(C(=O)COC(=O)c2nc3nccc(C)n3n2)cc1
- IC50 [17]: 4.5 µM (active)
- IC50 [18]: 1.92 µM (active)

SMILES: CC(C)(C)c1cc(NCCCn2ccnc2)n2ncc(-c3ccc(Cl)cc3)c2n1
- AC50 [19]: 1.45 µM (active)
- EC50 [5]: 1.49 µM (active)
- EC50 [20]: 6.12 µM (active)
- EC50 [21]: 1.91 µM (active)
- IC50 [22]: > 20 µM (inactive)
- EC50 [7]: 5.5 µM (active)
- EC50 [23]: > 150 µM (not active)

SMILES: CC(=O)NCCNC(=O)C1Cc2c(-c3ccc4c(c3)OCO4)ccnc2O1 (stereo unspecified)
- IC50 [1]: 1.73 µM (active)

SMILES: CCC(NCCC(c1ccccc1)c1ccccc1)=C1C(=O)NC(=O)NC1=O
- IC50 [24]: 5.36 µM (active)
- EC50 [25]: > 29.9 µM (inactive)

SMILES: CCCCC(Sc1nc(N)c(NC(=O)c2ccco2)c(=O)[nH]1)C(=O)O (stereo unspecified)
- IC50 [26]: > 59.6 µM (inactive)
- IC50 [27]: > 59.6 µM (inactive)

SMILES: O=C(CCS(=O)(=O)c1ccccc1)Nc1nc(-c2ccccn2)cs1
- CC50 [28]: 22.5 µM (active)
- AC50 [29]: 118 µM (active)
- CC50 [30]: 10.6 µM (active)
- IC50 [31]: 4.53 µM (active)
- IC50 [32]: 15.7 µM (active)
- CC50 [33]: > 20 µM (active)
- IC50 [34]: 35.8 µM (inactive)

SMILES: O=C(O)c1c(C(=O)O)c(-c2ccc(Br)cc2)n2c1CSC2
- AC50 [35]: 5.35 µM (active)
- IC50 [9]: > 59.6 µM (inactive)
- IC50 [10]: 41.9 µM (inactive)
- IC50 [11]: > 59.6 µM (inactive)

SMILES: O=C(Nc1cccc(N2C(=O)C=CC2=O)c1)c1cccs1
- IC50 [13]: 2.27 µM (active)
- IC50 [36]: 70.5 µM (active)
- EC50 [5]: 2.12 µM (active)
- IC50 [14]: 14.1 µM (inactive)
- EC50 [7]: 4.6 µM (active)

SMILES: NC(=NOC(=O)Cc1ccc([N+](=O)[O-])cc1)c1ccccn1
- AC50 [29]: 78.8 µM (active)
- IC50 [32]: 32.1 µM (active)

SMILES: COc1cc(C(=O)Nc2ccccc2C2COC(=O)C2=N)cc(OC)c1OC (stereo unspecified)
- IC50 [3]: 35.9 µM (inactive)
- IC50 [6]: 4.53 µM (active)
- IC50 [8]: 8.25 µM (active)
